Assay results: patent publication US8871753B2, “Macrocyclic compounds and their use as kinase inhibitors” (Incyte Corporation, priority 2008, dated 2014)
Structures can show the parent of a compound that is named as a salt.

How the values were obtained:
Type in all cases: biochemical
TYK2 = TYK2 (Homo sapiens, UniProt P29597); assay: TYK2 kinase inhibition (Table A1); settings: Table D1
[1] = target: T1, human JAK2 (a.a. 828-1132) (Homo sapiens, UniProt O60674); assay: In vitro JAK kinase assay (HTRF, phosphorylation of a biotinylated peptide), JAK2; settings: Table D1
T1 construct: JAK2 (a.a. 828-1132); His tag (N); made in house; host or cells: insect cells (baculovirus)
T1 sequence (O60674 828-1132): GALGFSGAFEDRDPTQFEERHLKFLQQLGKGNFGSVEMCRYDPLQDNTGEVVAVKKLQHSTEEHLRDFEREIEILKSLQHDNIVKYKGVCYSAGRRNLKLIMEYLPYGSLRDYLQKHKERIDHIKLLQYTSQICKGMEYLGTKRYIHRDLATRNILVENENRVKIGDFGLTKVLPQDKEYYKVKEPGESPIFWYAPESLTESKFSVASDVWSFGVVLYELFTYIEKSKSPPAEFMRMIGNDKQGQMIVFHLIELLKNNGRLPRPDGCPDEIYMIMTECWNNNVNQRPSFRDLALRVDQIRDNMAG
Summary of the method: (§1)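 Kinase activity was measured as phosphorylation of a biotinylated peptide, with ATP at 90 μM for JAK1, 30 μM for JAK2 and 3 μM for JAK3. Reactions ran 1 hr at room temperature, were stopped with EDTA plus SA-APC and Eu-Py20, and were read by HTRF after 40 minutes of antibody binding.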

[2] = target: T2, human JAK3 (a.a. 781-1124) (Homo sapiens, UniProt P52333); assay: In vitro JAK kinase assay (HTRF, phosphorylation of a biotinylated peptide), JAK3; settings: Table D1
T2 construct: JAK3 (a.a. 781-1124); His tag (N); made in house; host or cells: insect cells (baculovirus)
T2 sequence (P52333 781-1124): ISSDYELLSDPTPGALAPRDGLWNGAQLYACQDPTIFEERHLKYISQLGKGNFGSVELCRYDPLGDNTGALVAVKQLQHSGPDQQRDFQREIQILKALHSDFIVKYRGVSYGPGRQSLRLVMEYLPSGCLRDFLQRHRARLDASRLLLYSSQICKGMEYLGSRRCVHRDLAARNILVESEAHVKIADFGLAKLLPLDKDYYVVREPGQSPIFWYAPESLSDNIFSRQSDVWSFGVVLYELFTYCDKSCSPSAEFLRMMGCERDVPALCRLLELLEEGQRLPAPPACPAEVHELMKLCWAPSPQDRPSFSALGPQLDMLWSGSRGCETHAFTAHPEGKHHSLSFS
Summary of the method: as §1

[3] = target: T3, human JAK1 (a.a. 837-1142) (Homo sapiens, UniProt P23458); assay: In vitro JAK kinase assay (HTRF, phosphorylation of a biotinylated peptide), JAK1; settings: Table D1; read-out: JAK1 IC50
T3 construct: human JAK1 (a.a. 837-1142); His tag (N); made in house; host or cells: insect cells (baculovirus)
T3 sequence (P23458 849-1154): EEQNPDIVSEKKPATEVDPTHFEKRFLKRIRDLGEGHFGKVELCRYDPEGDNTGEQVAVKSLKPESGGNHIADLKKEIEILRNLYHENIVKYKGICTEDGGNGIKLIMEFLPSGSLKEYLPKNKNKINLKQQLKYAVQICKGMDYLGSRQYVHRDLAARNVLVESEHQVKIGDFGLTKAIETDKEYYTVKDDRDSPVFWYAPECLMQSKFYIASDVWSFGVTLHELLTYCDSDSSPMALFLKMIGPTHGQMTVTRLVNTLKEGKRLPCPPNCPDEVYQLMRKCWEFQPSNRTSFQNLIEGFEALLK
Summary of the method: as §1

TYK2, sequence (P29597 whole entry): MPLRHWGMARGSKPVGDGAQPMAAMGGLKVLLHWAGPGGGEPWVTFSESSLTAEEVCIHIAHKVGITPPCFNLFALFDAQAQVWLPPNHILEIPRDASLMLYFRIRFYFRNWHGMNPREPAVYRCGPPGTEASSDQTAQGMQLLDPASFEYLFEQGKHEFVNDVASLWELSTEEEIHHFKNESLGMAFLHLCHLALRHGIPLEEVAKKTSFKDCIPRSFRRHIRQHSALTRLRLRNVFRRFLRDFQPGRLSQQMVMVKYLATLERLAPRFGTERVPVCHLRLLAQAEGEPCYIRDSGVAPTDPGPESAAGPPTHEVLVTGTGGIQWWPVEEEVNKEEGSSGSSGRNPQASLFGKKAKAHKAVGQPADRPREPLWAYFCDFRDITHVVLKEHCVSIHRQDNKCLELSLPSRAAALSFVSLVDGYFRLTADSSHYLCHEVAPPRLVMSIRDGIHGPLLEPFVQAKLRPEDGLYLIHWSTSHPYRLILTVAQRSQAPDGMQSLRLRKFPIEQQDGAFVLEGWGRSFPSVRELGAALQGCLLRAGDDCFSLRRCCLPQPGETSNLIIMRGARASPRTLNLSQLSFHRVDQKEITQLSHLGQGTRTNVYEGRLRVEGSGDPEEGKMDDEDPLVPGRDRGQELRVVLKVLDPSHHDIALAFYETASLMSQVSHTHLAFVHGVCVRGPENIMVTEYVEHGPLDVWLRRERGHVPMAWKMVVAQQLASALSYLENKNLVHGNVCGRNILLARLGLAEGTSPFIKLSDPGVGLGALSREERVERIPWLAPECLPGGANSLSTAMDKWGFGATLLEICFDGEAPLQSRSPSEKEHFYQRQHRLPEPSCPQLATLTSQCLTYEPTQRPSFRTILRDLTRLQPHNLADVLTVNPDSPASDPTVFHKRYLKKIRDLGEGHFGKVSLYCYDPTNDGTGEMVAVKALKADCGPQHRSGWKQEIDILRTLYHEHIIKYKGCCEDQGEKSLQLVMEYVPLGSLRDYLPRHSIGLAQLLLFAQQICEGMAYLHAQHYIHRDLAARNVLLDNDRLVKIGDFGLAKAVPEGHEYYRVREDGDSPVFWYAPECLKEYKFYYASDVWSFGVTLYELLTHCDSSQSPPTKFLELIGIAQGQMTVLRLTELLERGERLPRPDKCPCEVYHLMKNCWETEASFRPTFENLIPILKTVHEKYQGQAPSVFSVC

Row | IC50 (TYK2) | IC50 [1] | IC50 [2] | IC50 [3] | SMILES
1 | > 400 nM | 58 nM | > 400 nM | 14 nM | O=C(Nc1ccsc1)N1CCC(CCOc2ccc3cc2CCc2cncc(c2)Nc2ncc(Cl)c(n2)N3)CC1 [Example D166, 4-(2-{[6-Chloro-2,4,8,18,22-pentaazatetracyclo[14.3.1.1(3,7).1(9,13)]docosa-1(20),3(22),4,6,9(21),10,12,16,18-nonaen-12-yl]oxy}ethyl)-N-3-thienylpiperidine-1-carboxamide bis(trifluoroacetate)]
2 | > 400 nM | 244 nM | > 400 nM | 57 nM | O=C(Nc1cccs1)N1CCC(CCOc2ccc3cc2CCc2cncc(c2)Nc2ncc(Cl)c(n2)N3)CC1 [Example D167, 4-(2-{[6-Chloro-2,4,8,18,22-pentaazatetracyclo[14.3.1.1(3,7).1(9,13)]docosa-1(20),3(22),4,6,9(21),10,12,16,18-nonaen-12-yl]oxy}ethyl)-N-2-thienylpiperidine-1-carboxamide bis(trifluoroacetate)]
3 | > 400 nM | 255 nM | > 400 nM | 34 nM | O=C(Nc1ccc(F)cc1)N1CCC(CCOc2ccc3cc2CCc2cncc(c2)Nc2ncc(Cl)c(n2)N3)CC1 [Example D168, 4-(2-{[6-Chloro-2,4,8,18,22-pentaazatetracyclo[14.3.1.1(3,7).1(9,13)]docosa-1(20),3(22),4,6,9(21),10,12,16,18-nonaen-12-yl]oxy}ethyl)-N-(4-fluorophenyl)piperidine-1-carboxamide bis(trifluoroacetate)]
4 | > 400 nM | 235 nM | > 400 nM | 39 nM | O=C(Nc1cccc(F)c1)N1CCC(CCOc2ccc3cc2CCc2cncc(c2)Nc2ncc(Cl)c(n2)N3)CC1 [Example D169, 4-(2-{[6-Chloro-2,4,8,18,22-pentaazatetracyclo[14.3.1.1(3,7).1(9,13)]docosa-1(20),3(22),4,6,9(21),10,12,16,18-nonaen-12-yl]oxy}ethyl)-N-(3-fluorophenyl)piperidine-1-carboxamide bis(trifluoroacetate)]
5 | > 400 nM | 130 nM | > 400 nM | 23 nM | O=C(Nc1ccccc1F)N1CCC(CCOc2ccc3cc2CCc2cncc(c2)Nc2ncc(Cl)c(n2)N3)CC1 [Example D170, 4-(2-{[6-Chloro-2,4,8,18,22-pentaazatetracyclo[14.3.1.1(3,7).1(9,13)]docosa-1(20),3(22),4,6,9(21),10,12,16,18-nonaen-12-yl]oxy}ethyl)-N-(2-fluorophenyl)piperidine-1-carboxamide bis(trifluoroacetate)]
6 | > 400 nM | > 400 nM | > 400 nM | 160 nM | N#Cc1ccc(NC(=O)N2CCC(CCOc3ccc4cc3CCc3cncc(c3)Nc3ncc(Cl)c(n3)N4)CC2)cc1 [Example D174, 4-(2-{[6-Chloro-2,4,8,18,22-pentaazatetracyclo[14.3.1.1(3,7).1(9,13)]docosa-1(20),3(22),4,6,9(21),10,12,16,18-nonaen-12-yl]oxy}ethyl)-N-(4-cyanophenyl)piperidine-1-carboxamide bis(trifluoroacetate)]
7 | > 400 nM | 180 nM | > 400 nM | 68 nM | O=C(Nc1cccnc1)N1CCC(CCOc2ccc3cc2CCc2cncc(c2)Nc2ncc(Cl)c(n2)N3)CC1 [Example D182, 4-(2-{[6-Chloro-2,4,8,18,22-pentaazatetracyclo[14.3.1.1(3,7).1(9,13)]docosa-1(20),3(22),4,6,9(21),10,12,16,18-nonaen-12-yl]oxy}ethyl)-N-pyridin-3-ylpiperidine-1-carboxamide tris(trifluoroacetate)]

The remaining lines, values behind:

Row | SMILES | IC50 (TYK2) | IC50 [1] | IC50 [2] | IC50 [3]
8 | Cc1noc(C)c1NC(=O)N1CCC(CCOc2ccc3cc2CCc2cncc(c2)Nc2ncc(Cl)c(n2)N3)CC1 [Example D171, 4-(2-{[6-Chloro-2,4,8,18,22-pentaazatetracyclo[14.3.1.1(3,7).1(9,13)]docosa-1(20),3(22),4,6,9(21),10,12,16,18-nonaen-12-yl]oxy}ethyl)-N-(3,5-dimethylisoxazol-4-yl)piperidine-1-carboxamide bis(trifluoroacetate)] | > 400 nM | 244 nM | > 400 nM | 117 nM
9 | Cc1csc(NC(=O)N2CCC(CCOc3ccc4cc3CCc3cncc(c3)Nc3ncc(Cl)c(n3)N4)CC2)c1 [Example D172, 4-(2-{[6-Chloro-2,4,8,18,22-pentaazatetracyclo[14.3.1.1(3,7).1(9,13)]docosa-1(20),3(22),4,6,9(21),10,12,16,18-nonaen-12-yl]oxy}ethyl)-N-(4-methyl-2-thienyl)piperidine-1-carboxamide bis(trifluoroacetate)] | > 400 nM | > 400 nM | > 400 nM | 130 nM
10 | N#Cc1ccccc1NC(=O)N1CCC(CCOc2ccc3cc2CCc2cncc(c2)Nc2ncc(Cl)c(n2)N3)CC1 [Example D173, 4-(2-{[6-Chloro-2,4,8,18,22-pentaazatetracyclo[14.3.1.1(3,7).1(9,13)]docosa-1(20),3(22),4,6,9(21),10,12,16,18-nonaen-12-yl]oxy}ethyl)-N-(2-cyanophenyl)piperidine-1-carboxamide bis(trifluoroacetate)] | > 400 nM | > 400 nM | > 400 nM | 100 nM
11 | CC1(C)Cc2cccc(NC(=O)N3CCC(CCOc4ccc5cc4CCc4cncc(c4)Nc4ncc(Cl)c(n4)N5)CC3)c2O1 [Example D175, 4-(2-{[6-Chloro-2,4,8,18,22-pentaazatetracyclo[14.3.1.1(3,7).1(9,13)]docosa-1(20),3(22),4,6,9(21),10,12,16,18-nonaen-12-yl]oxy}ethyl)-N-(2,2-dimethyl-2,3-dihydro-1-benzofuran-7-yl)piperidine-1-carboxamide bis(trifluoroacetate)] | > 400 nM | > 400 nM | > 400 nM | 150 nM
12 | O=C(Nc1cccc(N2CCOCC2)n1)N1CCC(CCOc2ccc3cc2CCc2cncc(c2)Nc2ncc(Cl)c(n2)N3)CC1 [Example D176, 4-(2-{[6-Chloro-2,4,8,18,22-pentaazatetracyclo[14.3.1.1(3,7).1(9,13)]docosa-1(20),3(22),4,6,9(21),10,12,16,18-nonaen-12-yl]oxy}ethyl)-N-(6-morpholin-4-ylpyridin-2-yl)piperidine-1-carboxamide tris(trifluoroacetate)] | > 400 nM | 208 nM | > 400 nM | 124 nM
13 | O=C(c1cnccn1)N1CCC(CCOc2ccc3cc2CCc2cncc(c2)Nc2ncc(Cl)c(n2)N3)CC1 [Example D177, 6-Chloro-12-{2-[1-(pyrazin-2-ylcarbonyl)piperidin-4-yl]ethoxy}-2,4,8,18,22-pentaazatetracyclo[14.3.1.1(3,7).1(9,13)]docosa-1(20),3(22),4,6,9(21),10,12,16,18-nonaene tris(trifluoroacetate)] | > 400 nM | 265 nM | > 400 nM | 150 nM
14 | Cc1oncc1C(=O)N1CCC(CCOc2ccc3cc2CCc2cncc(c2)Nc2ncc(Cl)c(n2)N3)CC1 [Example D178, 6-Chloro-12-(2-{1-[(5-methylisoxazol-4-yl)carbonyl]piperidin-4-yl}ethoxy)-2,4,8,18,22-pentaazatetracyclo[14.3.1.1(3,7).1(9,13)]docosa-1(20),3(22),4,6,9(21),10,12,16,18-nonaene bis(trifluoroacetate)] | > 400 nM | > 400 nM | > 400 nM | 265 nM
15 | O=C(c1cccnc1Cl)N1CCC(CCOc2ccc3cc2CCc2cncc(c2)Nc2ncc(Cl)c(n2)N3)CC1 [Example D179, 6-Chloro-12-(2-{1-[(2-chloropyridin-3-yl)carbonyl]piperidin-4-yl}ethoxy)-2,4,8,18,22-pentaazatetracyclo[14.3.1.1(3,7).1(9,13)]docosa-1(20),3(22),4,6,9(21),10,12,16,18-nonaene tris(trifluoroacetate)] | > 400 nM | > 400 nM | > 400 nM | 226 nM
16 | O=C(c1cccnc1)N1CCC(CCOc2ccc3cc2CCc2cncc(c2)Nc2ncc(Cl)c(n2)N3)CC1 [Example D180, 6-Chloro-12-{2-[1-(pyridin-3-ylcarbonyl)piperidin-4-yl]ethoxy}-2,4,8,18,22-pentaazatetracyclo[14.3.1.1(3,7).1(9,13)]docosa-1(20),3(22),4,6,9(21),10,12,16,18-nonaene tris(trifluoroacetate)] | > 400 nM | > 400 nM | > 400 nM | 255 nM
17 | O=C(c1ccncc1)N1CCC(CCOc2ccc3cc2CCc2cncc(c2)Nc2ncc(Cl)c(n2)N3)CC1 [Example D181, 6-Chloro-12-[2-(1-isonicotinoylpiperidin-4-yl)ethoxy]-2,4,8,18,22-pentaazatetracyclo[14.3.1.1(3,7).1(9,13)]docosa-1(20),3(22),4,6,9(21),10,12,16,18-nonaene tris(trifluoroacetate)] | > 400 nM | 313 nM | > 400 nM | 115 nM
18 | COC(=O)Cn1c(=O)oc2c3cc(cc21)Nc1nc(ncc1Cl)Nc1cccc(c1)CC3 [Example D183, Methyl [4-chloro-19-oxo-18-oxa-2,6,8,20,25-pentaazapentacyclo[14.6.1.1(3,7).1(9,13).0(17,21)]pentacosa-1(23),3(25),4,6,9(24),10,12,16,21-nonaen-20-yl]acetate trifluoroacetate] | 166 nM | 22 nM | 64 nM | 12 nM
